Experiments:
[1] = system: HCV GT1a replicon cells; assay: HCV replicon assay, GT1a replicon cells (luciferase reporter / NEO gene qPCR); type: cell-based; conditions: Hepatitis C virus, GT1A, EC50 range against HCV 1a genotype, 72 hours incubation
Procedure: (§1) An HCV Replicon assay was utilized in the present disclosure, and was prepared, developed and validated as described in Science, 1999, 285 (5424), 110-3 and J. Virol., 2003, 77 (5), 3007-19.
(§2) HCV GT1a, GT1b and GT2a replicon cells were used to test the currently described compound series as well as wild-type cells HCV 1b and resistant cells Y93H, L31F, P32L and 1302V. GT1a, GT1b and GT2a are HCV Replicon System which is transfected HCV 1a, 1b, 2a genotype respectively. The system containing G418 resistance gene NEO and Luciferase Reporter Gene can be used to determine the level of HCV replication, and evaluate the effects of the compounds inhibiting HCV replication, by using a real-time quantitative polymerase chain reaction (qPCR) method to detect NEO, and chemiluminescence method to test Luciferase Reporter Gene.
(§3) 1. Testing EC50 of the Compounds by Luciferase Assay
(§4) The GT1a cells and GT1b cells were seeded into 96-well plates (8,000 cells in 125 μl/well) respectively; each compound was diluted to desired concentration using 5-fold serial dilutions protocol, 10 dose in duplicate, and added to wells with POD™ 810 Plate Assembler. The final concentration of DMSO was 0.5%; the plates were incubated in a CO2 incubator for 72 hours; after that, 40 μl of Luciferase assay substrate (Promega Bright-Glo) was added to each well, and detected by a chemiluminescence detection system (Topcount Microplate Scintillation and Luminescence Counter) 5 minutes later; data analysis.
(§5) 2. Testing EC50 of the Compounds by Detecting Antibiotic G418 Resistance Gene NEO Gene
(§6) The GT1a cells and GT1b cells were seeded into 96-well plates (8,000 cells in 125 μl/well) respectively; each compound was diluted to desired concentration using 5-fold serial dilutions protocol, 10 dose in duplicate, and added to wells with POD™ 810 Plate Assembler, the final concentration of DMSO was 0.5%; the cells were incubated in a CO2 incubator for 72 hours; quantitative PCR. • Sample preparation: the supernatant was removed, 100 μl of FCW buffer solution was added to each well, washed carefully and discarded the solution; 50 μl of lysate FCP was added to each well, the cells was lysed as PCR template and PCR template was diluted with DEPC water as sample template. • Quantitative PCR: preparation of reaction mixture according to PCR system; the reaction mixture was dispensed into a 384-well PCR reaction plate (specially for quantitative); and a standard template which was diluted in proportion was distributed into the plate; and the sample template was distributed into the plate; then the 384-well plate was sealed with closure plate membrane; the […] PCR machine was operated by procedures; data analysis.
(§7) 3. Data processing: EC50 values of compounds were analyzed by GRAPHPAD PRISM® software.

[2] = system: HCV GT1b replicon cells; assay: HCV replicon assay, GT1b replicon cells (luciferase reporter / NEO gene qPCR); type: cell-based; conditions: EC50 range against HCV 1b genotype, 72 hours incubation
Procedure: as §1, §2, §3, §4, §5, §6, §7

Row | Structure (SMILES) | EC50 [1] | EC50 [2] | EC50 ([2]; Hepatitis C virus, GT1B, 72 h)
1 | COC(=O)N[C@H](C(=O)N1C[C@@H](C)C[C@H]1c1ncc(-c2ccc(-c3ccc(-c4cnc([C@@H]5C[C@H](C)CN5C(=O)[C@@H](NC(=O)OC)C(C)C)[nH]4)c4c3CC3(CCCCC3)C4)cc2)[nH]1)C(C)C [Example 18] | 0.001 to 0.1 nM | > 10 nM | –
2 | COC(=O)N[C@H](C(=O)N1CCC[C@H]1C(=O)Nc1ccc(-c2ccc(-c3ccc(NC(=O)[C@@H]4CCCN4C(=O)[C@@H](NC(=O)OC)C(C)C)cc3)c3c2CC2(CCCC2)C3)cc1)C(C)C [Example 39] | 0.001 to 0.1 nM | – | 0.101 to 1 nM
3 | COC(=O)N[C@H](C(=O)N1C[C@@H](C)C[C@H]1c1ncc(-c2ccc(-c3ccc(-c4ccc(-c5cnc([C@@H]6C[C@H](C)CN6C(=O)[C@@H](NC(=O)OC)C(C)C)[nH]5)cc4)c4c3CC3(CCCC3)C4)cc2)[nH]1)C(C)C [Example 40] | 0.001 to 0.1 nM | – | 1 to 10 nM
